Experiments:
Experiment in all cases: KINOMEscan Max
Assay type in all cases: binding
[1] = target: T1, CAMK2D (Homo sapiens, UniProt Q13557)
T1 construct: DNA tag (qPCR label); purchased Ambit Kinomescan (contract screening)
Experimental: (§1) Kinase panel profiling was performed at Ambit Kinomescan (http://www.ambitbio.com/technology/) using the “KINOMEscan™ Max” assay platform, a high-throughput method for screening small molecule compounds against large numbers of human kinases. KINOMEscan™ is based on a competition binding assay that quantitatively measures the ability of a compound to compete with an immobilized, active-site directed ligand. The assay is performed by combining three components: DNA-tagged kinase; immobilized ligand; and a test compound. The ability of the test compound to compete with the immobilized ligand is measured via quantitative PCR of the DNA tag. For a description of Ambit's assay protocol, see Fabian et al. A small molecule-kinase interaction map for clinical kinase inhibitors. Nat. Biotechnol. 23, 329-336 (2005).

[2] = target: T2, MAP3K1 (Homo sapiens, UniProt Q13233)
T2 construct: purchased Ambit Kinomescan (contract panel)
Experimental: as §1

[3] = target: T3, KIT(V559D.T670I) (Homo sapiens, UniProt P10721, T670I/V559D)
T3 construct: purchased Ambit Kinomescan (contract panel)
Experimental: as §1

[4] = target: T4, TLK2 (Homo sapiens, UniProt Q86UE8)
T4 construct: purchased Ambit Kinomescan (contract screening service)
Experimental: as §1

[5] = target: T5, TNNI3K (Homo sapiens, UniProt Q59H18)
T5 construct: purchased Ambit Kinomescan (contract screening service)
Experimental: as §1

[6] = target: T6, NEK11 (Homo sapiens, UniProt Q8NG66)
T6 construct: DNA tag (qPCR read-out)
Experimental: as §1

[7] = target: T7, YSK1 (Homo sapiens, UniProt O00506)
T7 construct: purchased Ambit Kinomescan (contract screening service)
T7 sequence (O00506 whole entry): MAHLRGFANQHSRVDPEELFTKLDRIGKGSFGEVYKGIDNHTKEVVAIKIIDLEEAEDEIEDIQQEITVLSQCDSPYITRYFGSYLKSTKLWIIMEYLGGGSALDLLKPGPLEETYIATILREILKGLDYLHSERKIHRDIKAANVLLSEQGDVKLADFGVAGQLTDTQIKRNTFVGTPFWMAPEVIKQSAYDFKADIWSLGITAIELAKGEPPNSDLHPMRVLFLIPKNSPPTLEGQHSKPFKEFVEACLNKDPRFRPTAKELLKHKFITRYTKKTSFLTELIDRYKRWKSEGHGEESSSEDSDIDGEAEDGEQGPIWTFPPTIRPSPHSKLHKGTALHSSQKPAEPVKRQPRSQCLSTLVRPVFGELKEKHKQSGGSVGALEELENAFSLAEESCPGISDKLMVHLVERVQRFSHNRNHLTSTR
Experimental: as §1

[8] = target: T8, RSK3(Kin.Dom.2-C-terminal) (Homo sapiens, UniProt Q15349)
T8 construct: RSK3(Kin.Dom.2-C-terminal); purchased Ambit Kinomescan (contract screening)
Experimental: as §1

[9] = target: T9, FAK (Homo sapiens, UniProt Q05397)
T9 construct: DNA tag (qPCR read-out)
T9 sequence (Q05397 whole entry): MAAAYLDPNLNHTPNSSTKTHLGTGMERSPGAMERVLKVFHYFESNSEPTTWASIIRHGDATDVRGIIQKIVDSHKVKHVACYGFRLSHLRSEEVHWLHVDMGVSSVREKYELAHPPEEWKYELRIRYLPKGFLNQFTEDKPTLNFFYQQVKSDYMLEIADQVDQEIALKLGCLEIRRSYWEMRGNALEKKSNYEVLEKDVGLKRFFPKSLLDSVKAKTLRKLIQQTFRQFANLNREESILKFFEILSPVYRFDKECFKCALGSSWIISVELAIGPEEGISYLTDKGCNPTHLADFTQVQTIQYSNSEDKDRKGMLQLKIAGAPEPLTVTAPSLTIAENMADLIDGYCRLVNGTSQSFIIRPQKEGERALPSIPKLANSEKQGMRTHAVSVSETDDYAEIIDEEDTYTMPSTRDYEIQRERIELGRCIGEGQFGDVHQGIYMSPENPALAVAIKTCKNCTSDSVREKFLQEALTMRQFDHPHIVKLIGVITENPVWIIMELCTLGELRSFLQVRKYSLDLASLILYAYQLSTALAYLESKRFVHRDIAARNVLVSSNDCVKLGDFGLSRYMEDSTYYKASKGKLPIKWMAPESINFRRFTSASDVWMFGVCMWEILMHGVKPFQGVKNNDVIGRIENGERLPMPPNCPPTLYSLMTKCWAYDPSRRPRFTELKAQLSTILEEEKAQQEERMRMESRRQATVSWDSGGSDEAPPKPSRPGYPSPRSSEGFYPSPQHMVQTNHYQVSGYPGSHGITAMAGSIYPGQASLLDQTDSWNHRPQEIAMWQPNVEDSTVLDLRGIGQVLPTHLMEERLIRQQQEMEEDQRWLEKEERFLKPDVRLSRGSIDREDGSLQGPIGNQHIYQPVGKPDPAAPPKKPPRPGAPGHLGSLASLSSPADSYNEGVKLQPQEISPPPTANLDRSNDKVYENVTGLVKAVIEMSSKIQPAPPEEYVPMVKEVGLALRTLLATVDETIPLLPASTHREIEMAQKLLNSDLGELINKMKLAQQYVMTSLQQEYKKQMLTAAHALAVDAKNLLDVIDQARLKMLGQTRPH
Experimental: as §1

[10] = target: T10, ERN1 (Homo sapiens, UniProt O75460)
T10 construct: DNA tag (qPCR read-out)
Experimental: as §1

[11] = target: T11, BRSK1 (Homo sapiens, UniProt Q8TDC3)
T11 construct: DNA tag (qPCR label); purchased Ambit Kinomescan (contract screening)
Experimental: as §1

[12] = target: T12, PRKD1 (Homo sapiens, UniProt Q15139)
T12 construct: DNA tag (qPCR read-out)
Experimental: as §1

[13] = target: T13, JAK3(JH1domain-catalytic) (Homo sapiens, UniProt P52333)
T13 construct: JAK3(JH1domain-catalytic); purchased Ambit Kinomescan (contract panel)
T13 sequence (P52333 822-1111 limits assumed): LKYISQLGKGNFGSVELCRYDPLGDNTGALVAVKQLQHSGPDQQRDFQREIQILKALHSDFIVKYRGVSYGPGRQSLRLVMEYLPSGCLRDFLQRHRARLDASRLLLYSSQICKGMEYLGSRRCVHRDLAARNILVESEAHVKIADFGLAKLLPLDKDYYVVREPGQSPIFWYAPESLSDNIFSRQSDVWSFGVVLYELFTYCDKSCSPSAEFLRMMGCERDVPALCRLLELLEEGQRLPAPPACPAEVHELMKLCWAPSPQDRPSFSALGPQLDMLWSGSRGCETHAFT
Experimental: as §1

[14] = target: T14, PFPK5(P.falciparum) (Plasmodium falciparum, UniProt P61075)
T14 construct: DNA tag (qPCR read-out)
Experimental: as §1

[15] = target: T15, CAMK4 (Homo sapiens, UniProt Q16566)
T15 construct: DNA tag (qPCR label); purchased Ambit Kinomescan (contract screening)
Experimental: as §1

[16] = target: MTOR (Homo sapiens, UniProt P42345)
Experimental: as §1

[17] = target: T16, RPS6KA4(Kin.Dom.1-N-terminal) (Homo sapiens, UniProt O75676)
T16 construct: RPS6KA4(Kin.Dom.1-N-terminal); DNA tag (qPCR read-out)
Experimental: as §1

[18] = target: CHEK2 (Homo sapiens, UniProt O96017)
Experimental: as §1

[19] = target: T17, SgK110 (Homo sapiens, UniProt P0C264)
T17 construct: DNA tag (qPCR read-out)
Experimental: as §1

[20] = target: MKK7 (Homo sapiens, UniProt O14733); conditions: 1 μM
Experimental: as §1

[21] = target: TIE2 (Homo sapiens, UniProt Q02763)
Experimental: as §1

[22] = target: WEE1 (Homo sapiens, UniProt P30291)
Experimental: as §1

[23] = target: T18, PRKG1 (Homo sapiens, UniProt Q13976)
T18 construct: DNA tag (qPCR read-out)
T18 sequence (Q13976 whole entry): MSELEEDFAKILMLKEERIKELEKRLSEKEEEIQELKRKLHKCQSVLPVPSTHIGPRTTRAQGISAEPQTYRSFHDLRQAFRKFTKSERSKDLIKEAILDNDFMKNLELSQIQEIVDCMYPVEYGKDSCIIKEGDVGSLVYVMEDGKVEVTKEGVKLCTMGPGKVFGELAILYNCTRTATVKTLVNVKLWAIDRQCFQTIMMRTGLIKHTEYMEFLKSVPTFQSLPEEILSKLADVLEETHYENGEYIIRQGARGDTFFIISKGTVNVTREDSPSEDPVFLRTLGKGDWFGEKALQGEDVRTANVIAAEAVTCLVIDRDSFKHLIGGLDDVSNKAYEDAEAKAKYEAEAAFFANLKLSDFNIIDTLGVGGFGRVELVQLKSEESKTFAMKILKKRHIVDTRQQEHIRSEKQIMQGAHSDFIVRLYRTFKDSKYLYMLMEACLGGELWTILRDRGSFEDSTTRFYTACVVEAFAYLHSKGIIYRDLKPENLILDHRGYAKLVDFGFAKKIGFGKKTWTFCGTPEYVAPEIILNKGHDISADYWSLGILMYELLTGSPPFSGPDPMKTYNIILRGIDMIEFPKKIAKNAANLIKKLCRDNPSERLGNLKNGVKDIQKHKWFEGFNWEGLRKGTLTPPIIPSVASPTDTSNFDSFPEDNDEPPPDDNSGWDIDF
Experimental: as §1

[24] = target: T19, DAPK2 (Homo sapiens, UniProt Q9UIK4)
T19 construct: DNA tag (qPCR read-out)
T19 sequence (Q9UIK4 whole entry): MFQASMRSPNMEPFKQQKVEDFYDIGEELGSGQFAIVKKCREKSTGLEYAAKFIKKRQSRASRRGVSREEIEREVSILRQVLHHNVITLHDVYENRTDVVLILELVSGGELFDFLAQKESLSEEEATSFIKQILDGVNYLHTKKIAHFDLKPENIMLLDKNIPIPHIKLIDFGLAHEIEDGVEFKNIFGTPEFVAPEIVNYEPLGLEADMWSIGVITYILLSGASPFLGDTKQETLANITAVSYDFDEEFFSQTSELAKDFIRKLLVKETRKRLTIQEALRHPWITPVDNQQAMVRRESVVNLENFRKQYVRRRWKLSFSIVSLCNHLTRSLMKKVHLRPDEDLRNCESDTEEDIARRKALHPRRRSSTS
Experimental: as §1

[25] = target: T20, RET(V804L) (Homo sapiens, UniProt P07949, V804L)
T20 construct: DNA tag (qPCR read-out)
Experimental: as §1

[26] = target: PRKR (Homo sapiens, UniProt P19525); conditions: 1 μM
Sequence of PRKR (P19525 whole entry): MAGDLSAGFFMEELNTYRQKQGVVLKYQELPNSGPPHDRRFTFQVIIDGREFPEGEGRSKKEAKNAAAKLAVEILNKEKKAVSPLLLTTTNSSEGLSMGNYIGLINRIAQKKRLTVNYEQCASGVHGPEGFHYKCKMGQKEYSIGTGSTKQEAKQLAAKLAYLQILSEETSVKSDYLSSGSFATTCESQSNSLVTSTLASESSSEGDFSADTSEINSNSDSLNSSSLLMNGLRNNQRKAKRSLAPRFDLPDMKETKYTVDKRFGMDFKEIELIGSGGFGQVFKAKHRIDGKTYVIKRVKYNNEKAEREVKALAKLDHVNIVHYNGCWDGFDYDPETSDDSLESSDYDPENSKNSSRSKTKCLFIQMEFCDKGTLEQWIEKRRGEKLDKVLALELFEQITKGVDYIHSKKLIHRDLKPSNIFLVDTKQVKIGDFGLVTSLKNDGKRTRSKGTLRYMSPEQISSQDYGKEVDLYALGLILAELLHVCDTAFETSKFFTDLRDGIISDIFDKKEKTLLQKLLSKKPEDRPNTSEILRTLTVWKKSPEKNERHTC
Experimental: as §1

[27] = target: PAK6 (Homo sapiens, UniProt Q9NQU5)
Sequence of PAK6 (Q9NQU5 whole entry): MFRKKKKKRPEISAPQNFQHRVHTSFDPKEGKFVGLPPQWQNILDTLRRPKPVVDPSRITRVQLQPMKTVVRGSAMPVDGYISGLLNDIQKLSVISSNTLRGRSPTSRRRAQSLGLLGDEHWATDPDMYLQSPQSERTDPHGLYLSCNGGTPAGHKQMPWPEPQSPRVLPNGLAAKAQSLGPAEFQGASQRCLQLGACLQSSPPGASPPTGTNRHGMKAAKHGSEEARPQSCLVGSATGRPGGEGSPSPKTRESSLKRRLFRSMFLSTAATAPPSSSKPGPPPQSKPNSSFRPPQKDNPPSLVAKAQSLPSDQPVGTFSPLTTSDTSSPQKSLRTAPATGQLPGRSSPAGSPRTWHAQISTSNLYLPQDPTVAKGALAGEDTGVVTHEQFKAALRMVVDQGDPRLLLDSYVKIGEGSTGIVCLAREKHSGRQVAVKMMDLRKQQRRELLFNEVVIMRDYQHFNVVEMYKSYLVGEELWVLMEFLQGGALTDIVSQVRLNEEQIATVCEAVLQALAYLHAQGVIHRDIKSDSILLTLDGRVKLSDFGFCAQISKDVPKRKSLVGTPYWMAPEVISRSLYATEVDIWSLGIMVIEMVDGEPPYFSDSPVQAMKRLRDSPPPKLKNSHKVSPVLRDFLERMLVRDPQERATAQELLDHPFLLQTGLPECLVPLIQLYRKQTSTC
Experimental: as §1

[28] = target: T21, YES (Homo sapiens, UniProt P07947)
T21 construct: purchased Ambit Kinomescan (contract screening service)
Experimental: as §1

[29] = target: PCTK1 (Homo sapiens, UniProt Q00536)
Sequence of PCTK1 (Q00536 whole entry): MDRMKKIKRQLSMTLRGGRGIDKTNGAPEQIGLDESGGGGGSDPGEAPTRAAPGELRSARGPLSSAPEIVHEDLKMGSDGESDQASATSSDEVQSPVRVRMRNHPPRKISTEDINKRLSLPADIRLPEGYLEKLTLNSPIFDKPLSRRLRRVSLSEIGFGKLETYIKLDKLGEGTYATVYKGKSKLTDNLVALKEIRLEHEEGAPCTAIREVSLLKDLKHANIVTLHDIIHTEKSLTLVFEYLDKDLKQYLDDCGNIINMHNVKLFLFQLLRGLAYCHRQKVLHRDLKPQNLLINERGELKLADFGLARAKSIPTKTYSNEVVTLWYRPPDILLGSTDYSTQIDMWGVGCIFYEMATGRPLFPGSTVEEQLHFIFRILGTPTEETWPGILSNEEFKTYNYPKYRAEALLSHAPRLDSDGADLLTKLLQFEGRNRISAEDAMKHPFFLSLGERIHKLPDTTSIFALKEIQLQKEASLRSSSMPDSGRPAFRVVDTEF
Experimental: as §1

[30] = target: T22, MAPKAPK5 (Homo sapiens, UniProt Q8IW41)
T22 construct: purchased Ambit Kinomescan (contract panel)
T22 sequence (Q8IW41 whole entry): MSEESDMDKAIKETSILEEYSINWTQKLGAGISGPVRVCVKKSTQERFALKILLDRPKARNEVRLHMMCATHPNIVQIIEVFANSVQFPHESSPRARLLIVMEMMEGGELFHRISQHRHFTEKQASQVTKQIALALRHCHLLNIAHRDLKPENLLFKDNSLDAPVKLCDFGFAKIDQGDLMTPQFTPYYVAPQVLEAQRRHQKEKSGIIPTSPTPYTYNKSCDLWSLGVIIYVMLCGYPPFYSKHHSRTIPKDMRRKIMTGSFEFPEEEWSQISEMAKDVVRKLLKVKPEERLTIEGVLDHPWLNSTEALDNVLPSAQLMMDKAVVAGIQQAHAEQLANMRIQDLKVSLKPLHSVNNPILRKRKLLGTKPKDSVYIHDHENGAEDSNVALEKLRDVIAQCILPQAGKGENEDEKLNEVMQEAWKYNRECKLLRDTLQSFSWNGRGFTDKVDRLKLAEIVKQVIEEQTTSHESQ
Experimental: as §1

[31] = target: T23, INSRR (Homo sapiens, UniProt P14616)
T23 construct: purchased Ambit Kinomescan (contract panel, KINOMEscan Max)
Experimental: as §1

[32] = target: T24, TYK2(JH2domain-pseudokinase) (Homo sapiens, UniProt P29597); conditions: 1 μM
T24 construct: TYK2(JH2domain-pseudokinase); purchased Ambit Kinomescan (contract screening service)
Experimental: as §1

[33] = target: T25, SRC (Homo sapiens, UniProt P12931)
T25 construct: purchased Ambit Kinomescan (contract screening)
Experimental: as §1

NCCCNc1nc2c(Br)c(Br)c(Br)c(Br)c2[nH]1 [Compound 11, N-(3-aminopropyl)-4,5,6,7-tetrabromo-1H-benzo[d]imidazol-2-amine]
remaining binding at 1 µM [1]: 100%
remaining binding at 1 µM [2]: 100%
remaining binding at 1 µM [3]: 100%
remaining binding at 1 µM [4]: 100%
remaining binding at 1 µM [5]: 100%
remaining binding at 1 µM [6]: 89%
remaining binding at 1 µM [7]: 100%
remaining binding at 1 µM [8]: 97%
remaining binding at 1 µM [9]: 89%
remaining binding at 1 µM [10]: 91%
remaining binding at 1 µM [11]: 100%
remaining binding at 1 µM [12]: 28%
remaining binding at 1 µM [13]: 100%
remaining binding at 1 µM [14]: 100%
remaining binding at 1 µM [15]: 100%
remaining binding at 1 µM [16]: 100%
remaining binding at 1 µM [17]: 55%
remaining binding at 1 µM [18]: 80%
remaining binding at 1 µM [19]: 100%
% binding [20]: 100%
remaining binding at 1 µM [21]: 91%
remaining binding at 1 µM [22]: 91%
remaining binding at 1 µM [23]: 53%
remaining binding at 1 µM [24]: 90%
remaining binding at 1 µM [25]: 100%
% binding [26]: 91%
remaining binding at 1 µM [27]: 99%
remaining binding at 1 µM [28]: 100%
remaining binding at 1 µM [29]: 100%
remaining binding at 1 µM [30]: 100%
remaining binding at 1 µM [31]: 100%
% binding [32]: 100%
remaining binding at 1 µM [33]: 97%
